Laboratory results taken from patent US4452787A, “1-Substituted tricyclic quinazolinones having biological activity as tranquilizers” (Sandoz, Inc., priority 1982, dated 1984).

Each compound was assayed on benzodiazepine receptors (assay: Flunitrazepam Receptor Binding Assay, FBA Test No. 1 (3H-flunitrazepam displacement, calf caudate)). Conditions: final concentration 1×10^-6 M, lower = more displacement of 3H-flunitrazepam, 1 µM.

Structure (SMILES) | Response - % of Control (percent specifically bound compared to control)
CC(c1ccccc1)N1CCn2c1nc1ccc(Cl)cc1c2=O (single isomer, unassigned) [Example 2D] | 15 % of Control
O=c1c2cc(Cl)ccc2nc2n1CCN2Cc1ccccc1 [Example 2A] | 1 % of Control
CC1Cn2c(nc3ccc(Cl)cc3c2=O)N1Cc1ccccc1 (stereo not shown) [Example 2B] | 5 % of Control
O=c1c2cc(Cl)ccc2nc2n1CCN2Cc1ccc(Cl)cc1 [Example 2E, 1-(p-chlorobenzyl)-7-chloro-2,3-dihydro-imidazo[2,1-b]quinazolin-5(1H)-one] | 5 % of Control
